In PMC5392334, “Discovery and characterization of a novel irreversible EGFR mutants selective and potent kinase inhibitor CHMFL-EGFR-26 with a distinct binding mode” (Oncotarget, 2017):

Key:
[1] = biological target: T1, ABL1(E255K)-phosphorylated (Homo sapiens, UniProt P00519, E255K); experiment: KinomeScan; assay type: binding; conditions: read-out: % control
T1 construct: purchased DiscoveRx KINOMEscan

[2] = biological target: T2, ABL1(M351T)-phosphorylated (Homo sapiens, UniProt P00519, M351T); experiment: KinomeScan; assay type: binding; conditions: read-out: % control
T2 construct: purchased DiscoveRx KINOMEscan

[3] = biological target: T3, ABL1(T315I)-phosphorylated (Homo sapiens, UniProt P00519, T315I); experiment: KinomeScan; assay type: binding; conditions: read-out: % control
T3 construct: purchased DiscoveRx KINOMEscan

[4] = biological target: T4, ABL1(Y253F)-phosphorylated (Homo sapiens, UniProt P00519, Y253F); experiment: KinomeScan; assay type: binding; conditions: read-out: % control
T4 construct: purchased DiscoveRx KINOMEscan

[5] = biological target: T5, ABL1-phosphorylated (Homo sapiens, UniProt P00519); experiment: KinomeScan; assay type: binding; conditions: read-out: % control
T5 construct: purchased DiscoveRx KINOMEscan

[6] = biological target: T6, CDKL5 (Homo sapiens, UniProt O76039); experiment: KinomeScan; assay type: binding; conditions: read-out: % control
T6 construct: purchased DiscoveRx KINOMEscan

[7] = biological target: T7, CLK2 (Homo sapiens, UniProt P49760); experiment: KinomeScan; assay type: binding; conditions: read-out: % control
T7 construct: purchased DiscoveRx KINOMEscan

[8] = biological target: T8, EPHA8 (Homo sapiens, UniProt P29322); experiment: KinomeScan; assay type: binding; conditions: read-out: % control
T8 construct: purchased DiscoveRx KINOMEscan

[9] = biological target: T9, HIPK1 (Homo sapiens, UniProt Q86Z02); experiment: KinomeScan; assay type: binding; conditions: read-out: % control
T9 construct: purchased DiscoveRx KINOMEscan
T9 sequence (Q86Z02 whole entry): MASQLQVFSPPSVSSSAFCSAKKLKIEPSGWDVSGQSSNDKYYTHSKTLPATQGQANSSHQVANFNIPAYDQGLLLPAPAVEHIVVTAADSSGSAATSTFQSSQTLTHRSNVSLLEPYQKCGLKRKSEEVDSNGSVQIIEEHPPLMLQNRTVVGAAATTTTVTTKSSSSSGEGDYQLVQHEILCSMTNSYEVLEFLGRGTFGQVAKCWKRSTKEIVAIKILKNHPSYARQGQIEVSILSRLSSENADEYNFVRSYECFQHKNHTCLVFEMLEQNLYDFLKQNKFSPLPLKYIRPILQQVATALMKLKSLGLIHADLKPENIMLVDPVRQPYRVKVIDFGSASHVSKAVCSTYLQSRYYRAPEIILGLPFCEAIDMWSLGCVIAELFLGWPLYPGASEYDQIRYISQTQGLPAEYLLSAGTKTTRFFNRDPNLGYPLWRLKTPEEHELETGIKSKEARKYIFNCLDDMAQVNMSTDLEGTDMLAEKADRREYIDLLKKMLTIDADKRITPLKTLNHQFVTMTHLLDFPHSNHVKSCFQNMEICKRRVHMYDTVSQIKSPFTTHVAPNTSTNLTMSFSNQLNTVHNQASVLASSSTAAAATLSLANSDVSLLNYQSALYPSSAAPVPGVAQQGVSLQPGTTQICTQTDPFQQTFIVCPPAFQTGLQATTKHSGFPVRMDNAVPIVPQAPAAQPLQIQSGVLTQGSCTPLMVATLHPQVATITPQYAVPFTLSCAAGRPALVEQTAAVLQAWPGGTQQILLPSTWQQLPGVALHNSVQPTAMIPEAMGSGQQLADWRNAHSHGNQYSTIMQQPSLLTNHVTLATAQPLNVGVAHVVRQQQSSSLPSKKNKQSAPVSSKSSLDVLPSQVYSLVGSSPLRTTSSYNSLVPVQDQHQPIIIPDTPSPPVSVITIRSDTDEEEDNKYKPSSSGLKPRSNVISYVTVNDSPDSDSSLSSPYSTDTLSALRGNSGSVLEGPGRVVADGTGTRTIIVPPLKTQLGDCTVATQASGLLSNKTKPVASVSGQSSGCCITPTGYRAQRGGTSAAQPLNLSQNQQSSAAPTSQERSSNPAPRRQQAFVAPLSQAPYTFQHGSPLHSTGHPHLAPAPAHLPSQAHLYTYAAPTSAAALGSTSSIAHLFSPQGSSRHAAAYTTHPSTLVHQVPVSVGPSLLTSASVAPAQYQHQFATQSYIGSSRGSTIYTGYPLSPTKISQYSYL

[10] = biological target: T10, LZK (Homo sapiens, UniProt O43283); experiment: KinomeScan; assay type: binding; conditions: read-out: % control
T10 construct: purchased DiscoveRx KINOMEscan

[11] = biological target: T11, MAST1 (Homo sapiens, UniProt Q9Y2H9); experiment: KinomeScan; assay type: binding; conditions: read-out: % control
T11 construct: purchased DiscoveRx KINOMEscan

[12] = biological target: T12, MST1 (Homo sapiens, UniProt Q13043); experiment: KinomeScan; assay type: binding; conditions: read-out: % control
T12 construct: purchased DiscoveRx KINOMEscan
T12 sequence (Q13043 whole entry): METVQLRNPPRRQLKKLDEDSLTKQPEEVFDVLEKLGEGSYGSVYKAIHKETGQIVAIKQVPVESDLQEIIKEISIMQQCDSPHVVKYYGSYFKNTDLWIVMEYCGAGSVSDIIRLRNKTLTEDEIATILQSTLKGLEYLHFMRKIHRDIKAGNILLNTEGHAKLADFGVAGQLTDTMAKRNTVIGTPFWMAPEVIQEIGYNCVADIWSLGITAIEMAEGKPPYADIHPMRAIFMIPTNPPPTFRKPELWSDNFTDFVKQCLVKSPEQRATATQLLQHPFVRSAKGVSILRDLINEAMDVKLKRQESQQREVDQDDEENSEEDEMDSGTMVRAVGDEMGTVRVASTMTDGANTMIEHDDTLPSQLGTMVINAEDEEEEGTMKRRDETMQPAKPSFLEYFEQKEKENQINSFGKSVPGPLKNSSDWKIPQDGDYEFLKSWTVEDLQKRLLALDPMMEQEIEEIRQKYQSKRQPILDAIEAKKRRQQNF

[13] = biological target: T13, PAK3 (Homo sapiens, UniProt O75914); experiment: KinomeScan; assay type: binding; conditions: read-out: % control
T13 construct: purchased DiscoveRx KINOMEscan
T13 sequence (O75914 whole entry): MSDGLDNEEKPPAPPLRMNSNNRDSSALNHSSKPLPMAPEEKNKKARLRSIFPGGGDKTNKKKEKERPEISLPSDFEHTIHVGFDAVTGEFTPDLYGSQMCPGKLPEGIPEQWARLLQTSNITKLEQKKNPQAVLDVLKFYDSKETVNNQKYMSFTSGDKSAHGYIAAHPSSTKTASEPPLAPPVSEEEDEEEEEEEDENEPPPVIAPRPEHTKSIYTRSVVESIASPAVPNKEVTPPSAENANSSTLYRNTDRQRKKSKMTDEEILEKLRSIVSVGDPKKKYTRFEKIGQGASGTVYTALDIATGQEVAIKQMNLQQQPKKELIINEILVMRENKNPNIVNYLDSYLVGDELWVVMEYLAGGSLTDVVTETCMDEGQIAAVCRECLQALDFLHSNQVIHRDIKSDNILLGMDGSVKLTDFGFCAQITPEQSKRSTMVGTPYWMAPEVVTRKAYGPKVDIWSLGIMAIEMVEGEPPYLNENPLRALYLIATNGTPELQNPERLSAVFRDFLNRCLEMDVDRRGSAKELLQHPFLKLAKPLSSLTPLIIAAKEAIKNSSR

[14] = biological target: T14, PIK3CA (Homo sapiens, UniProt P42336); experiment: KinomeScan; assay type: binding; conditions: read-out: % control
T14 construct: purchased DiscoveRx KINOMEscan
T14 sequence (P42336 whole entry): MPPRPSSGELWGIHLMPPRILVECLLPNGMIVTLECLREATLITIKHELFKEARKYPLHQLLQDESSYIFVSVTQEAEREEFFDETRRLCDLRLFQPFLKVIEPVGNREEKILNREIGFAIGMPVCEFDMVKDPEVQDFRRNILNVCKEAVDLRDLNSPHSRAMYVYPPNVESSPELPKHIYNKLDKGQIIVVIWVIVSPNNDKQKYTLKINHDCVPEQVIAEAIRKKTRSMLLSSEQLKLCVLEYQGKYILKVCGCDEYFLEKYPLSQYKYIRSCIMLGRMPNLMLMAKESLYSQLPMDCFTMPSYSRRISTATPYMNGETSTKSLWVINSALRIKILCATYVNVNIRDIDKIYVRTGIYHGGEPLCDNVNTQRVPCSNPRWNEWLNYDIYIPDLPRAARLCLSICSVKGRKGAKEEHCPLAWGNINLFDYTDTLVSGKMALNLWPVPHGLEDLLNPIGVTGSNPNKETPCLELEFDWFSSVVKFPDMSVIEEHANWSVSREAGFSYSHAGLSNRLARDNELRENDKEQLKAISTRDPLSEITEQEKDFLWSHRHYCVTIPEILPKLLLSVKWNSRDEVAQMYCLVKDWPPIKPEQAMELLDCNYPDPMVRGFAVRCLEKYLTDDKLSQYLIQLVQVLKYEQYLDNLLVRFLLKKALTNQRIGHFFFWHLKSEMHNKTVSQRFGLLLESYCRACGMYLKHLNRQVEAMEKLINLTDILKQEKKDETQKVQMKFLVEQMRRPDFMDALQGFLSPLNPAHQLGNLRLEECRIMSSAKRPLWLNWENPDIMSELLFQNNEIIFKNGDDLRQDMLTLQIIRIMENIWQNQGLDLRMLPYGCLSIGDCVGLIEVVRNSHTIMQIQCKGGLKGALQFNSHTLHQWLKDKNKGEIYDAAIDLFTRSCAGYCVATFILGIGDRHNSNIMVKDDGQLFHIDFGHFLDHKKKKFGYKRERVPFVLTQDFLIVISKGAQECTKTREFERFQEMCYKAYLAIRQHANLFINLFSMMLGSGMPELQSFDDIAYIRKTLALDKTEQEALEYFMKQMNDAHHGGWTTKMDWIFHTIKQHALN

[15] = biological target: T15, PIP5K1C (Homo sapiens, UniProt O60331); experiment: KinomeScan; assay type: binding; conditions: read-out: % control
T15 construct: purchased DiscoveRx KINOMEscan
T15 sequence (O60331 whole entry): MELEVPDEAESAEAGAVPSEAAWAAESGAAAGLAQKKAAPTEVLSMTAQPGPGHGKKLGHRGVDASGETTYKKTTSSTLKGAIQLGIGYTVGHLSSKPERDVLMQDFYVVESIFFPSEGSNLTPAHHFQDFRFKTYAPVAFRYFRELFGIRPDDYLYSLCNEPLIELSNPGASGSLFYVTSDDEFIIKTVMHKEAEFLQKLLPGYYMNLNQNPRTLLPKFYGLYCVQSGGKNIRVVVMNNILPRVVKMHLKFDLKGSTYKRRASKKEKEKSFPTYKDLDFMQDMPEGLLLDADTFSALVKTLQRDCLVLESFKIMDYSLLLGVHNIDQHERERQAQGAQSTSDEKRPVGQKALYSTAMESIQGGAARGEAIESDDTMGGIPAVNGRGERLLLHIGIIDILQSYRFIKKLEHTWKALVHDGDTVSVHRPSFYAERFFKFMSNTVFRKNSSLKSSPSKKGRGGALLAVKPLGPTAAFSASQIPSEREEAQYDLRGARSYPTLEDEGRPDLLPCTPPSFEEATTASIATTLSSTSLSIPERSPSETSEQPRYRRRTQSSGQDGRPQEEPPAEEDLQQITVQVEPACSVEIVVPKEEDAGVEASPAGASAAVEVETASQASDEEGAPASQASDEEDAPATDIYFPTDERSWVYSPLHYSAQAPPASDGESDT

[16] = biological target: T16, PYK2 (Homo sapiens, UniProt Q14289); experiment: KinomeScan; assay type: binding; conditions: read-out: % control
T16 construct: purchased DiscoveRx KINOMEscan

[17] = biological target: T17, RIPK5 (Homo sapiens, UniProt Q6XUX3); experiment: KinomeScan; assay type: binding; conditions: read-out: % control
T17 construct: purchased DiscoveRx KINOMEscan

[18] = biological target: T18, SGK3 (Homo sapiens, UniProt Q96BR1); experiment: KinomeScan; assay type: binding; conditions: read-out: % control
T18 construct: purchased DiscoveRx KINOMEscan

[19] = biological target: T19, TLK1 (Homo sapiens, UniProt Q9UKI8); experiment: KinomeScan; assay type: binding; conditions: read-out: % control
T19 construct: purchased DiscoveRx KINOMEscan

[20] = biological target: T20, TNNI3K (Homo sapiens, UniProt Q59H18); experiment: KinomeScan; assay type: binding; conditions: read-out: % control
T20 construct: purchased DiscoveRx KINOMEscan
T20 sequence (Q59H18 whole entry): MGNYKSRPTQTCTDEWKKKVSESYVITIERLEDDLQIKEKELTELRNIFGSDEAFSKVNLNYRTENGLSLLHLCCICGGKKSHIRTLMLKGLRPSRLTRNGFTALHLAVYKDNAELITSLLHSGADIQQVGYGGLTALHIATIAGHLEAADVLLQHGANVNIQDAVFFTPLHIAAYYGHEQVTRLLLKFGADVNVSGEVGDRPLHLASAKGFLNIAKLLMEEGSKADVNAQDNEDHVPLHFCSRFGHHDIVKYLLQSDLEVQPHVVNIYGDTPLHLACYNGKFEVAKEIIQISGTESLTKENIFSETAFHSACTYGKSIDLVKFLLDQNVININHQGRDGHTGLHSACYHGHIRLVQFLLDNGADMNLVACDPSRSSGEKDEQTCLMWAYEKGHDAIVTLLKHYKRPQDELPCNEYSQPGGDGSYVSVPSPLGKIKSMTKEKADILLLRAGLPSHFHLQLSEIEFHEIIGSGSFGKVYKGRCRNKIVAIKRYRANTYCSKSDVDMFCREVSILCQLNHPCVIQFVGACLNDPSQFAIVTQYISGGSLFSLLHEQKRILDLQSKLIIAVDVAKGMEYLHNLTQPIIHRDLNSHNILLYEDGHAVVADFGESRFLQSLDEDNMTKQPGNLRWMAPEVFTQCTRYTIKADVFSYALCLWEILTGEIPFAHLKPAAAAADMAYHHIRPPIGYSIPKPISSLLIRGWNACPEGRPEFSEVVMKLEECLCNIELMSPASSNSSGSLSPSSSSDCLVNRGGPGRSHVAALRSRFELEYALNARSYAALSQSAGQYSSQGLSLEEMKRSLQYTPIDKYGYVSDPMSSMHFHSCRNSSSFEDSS

[21] = biological target: T21, WNK4 (Homo sapiens, UniProt Q96J92); experiment: KinomeScan; assay type: binding; conditions: read-out: % control
T21 construct: purchased DiscoveRx KINOMEscan

[22] = test system: BaF3-TEL-EGFR-T790M-C797S; experiment: Anti-proliferation, BaF3 isogenic cell lines (CellTiter-Glo); assay type: cell-based; conditions: Mus musculus, 72 hours, triplet testing
[23] = test system: BaF3-FL-EGFR-del19; experiment: as above; assay type: cell-based; conditions: Mus musculus, 72 hours, triplet testing
[24] = test system: PC9 tumor xenografts; experiment: PC9 cell inoculated xenograft mouse model; assay type: in vivo, mice; conditions: 21-day treatment
Procedure: Figure 5 Anti-tumor efficacy of CHMFL-EGFR-26 in PC9 cell inoculated xenograft mouse mode Female nu/nu mice bearing established PC9 tumor xenografts were treated with CHMFL-EGFR-26 at 25.0 and 50.0 mg/kg/d, or vehicle. Daily oral administration was initiated when PC9 tumors had reached a size of 200 to 400 mm^3. Each group contained 7 or 8 animals. Data, mean ± SEM. A. Body weight and B. Tumor size measurements from PC9 xenograft mice after CHMFL-EGFR-26 administration. Initial body weight and tumor size were set as 100%. C. Representative photographs of tumors in each group after 25.0 or 50.0 mg/kg/d CHMFL-EGFR-26 or vehicle treatment. D. Comparison of the final tumor weight in each group after 21-day treatment period. Numbers in columns indicate the mean tumor weight in each group. E. Representative micrographs of hematoxylin and eosin (HE), Ki-67, and TUNEL staining of tumor tissues with CHMFL-EGFR-26 treatment compared to the vehicle-treated group. […]
Five-week old female nu/nu mice were purchased from the Shanghai Experimental Center, Chinese Science Academy (Shanghai, China). […] Body weight and tumor growth was measured daily after CHMFL-EGFR-26 treatment. Tumor volumes were calculated as follows: tumor volume (mm^3)= [(W^2 × L)/2] in which width (W) is defined as the smaller of the two measurements and length (L) is defined as the larger of the two measurements.

## C=CC(=O)N1CCC[C@@H](n2nc(-c3ccc(OCc4cccc(C)n4)c(Cl)c3)c3c(N)ncnc32)C1 [CHMFL-EGFR-26]
[1]
  remaining binding at 1 µM: 98%
[2]
  remaining binding at 1 µM: 100%
[3]
  remaining binding at 1 µM: 98%
[4]
  remaining binding at 1 µM: 100%
[5]
  remaining binding at 1 µM: 81%
[6]
  remaining binding at 1 µM: 100%
[7]
  remaining binding at 1 µM: 96%
[8]
  remaining binding at 1 µM: 89%
[9]
  remaining binding at 1 µM: 98%
[10]
  remaining binding at 1 µM: 86%
[11]
  remaining binding at 1 µM: 93%
[12]
  remaining binding at 1 µM: 61%
[13]
  remaining binding at 1 µM: 62%
[14]
  remaining binding at 1 µM: 100%
[15]
  remaining binding at 1 µM: 67%
[16]
  remaining binding at 1 µM: 55%
[17]
  remaining binding at 1 µM: 13%
[18]
  remaining binding at 1 µM: 83%
[19]
  remaining binding at 1 µM: 84%
[20]
  remaining binding at 1 µM: 89%
[21]
  remaining binding at 1 µM: 86%
[22]
  GI50: 3.7 µM
[23]
  GI50: 0.013 µM
[24]; 25 mg/kg/d oral
  Tumor weight (final, mean): 0.93 g
[24]; 50 mg/kg/d oral
  Tumor weight (final, mean): 0.68 g
